{
  "source": "the kinase profiling compilation of Christmann-Franck et al. (2016)",
  "assay_in_all_cases": "radiometric filter-binding kinase assay, Kinase HotSpot",
  "conditions_in_all_cases": "compound 0.5 µM; ATP 10 µM",
  "key": {"EPHA5 (human)": {"molecular_target": "EPHA5 (human) (UniProt P54756)", "sequence (P54756 whole entry, looked up)": "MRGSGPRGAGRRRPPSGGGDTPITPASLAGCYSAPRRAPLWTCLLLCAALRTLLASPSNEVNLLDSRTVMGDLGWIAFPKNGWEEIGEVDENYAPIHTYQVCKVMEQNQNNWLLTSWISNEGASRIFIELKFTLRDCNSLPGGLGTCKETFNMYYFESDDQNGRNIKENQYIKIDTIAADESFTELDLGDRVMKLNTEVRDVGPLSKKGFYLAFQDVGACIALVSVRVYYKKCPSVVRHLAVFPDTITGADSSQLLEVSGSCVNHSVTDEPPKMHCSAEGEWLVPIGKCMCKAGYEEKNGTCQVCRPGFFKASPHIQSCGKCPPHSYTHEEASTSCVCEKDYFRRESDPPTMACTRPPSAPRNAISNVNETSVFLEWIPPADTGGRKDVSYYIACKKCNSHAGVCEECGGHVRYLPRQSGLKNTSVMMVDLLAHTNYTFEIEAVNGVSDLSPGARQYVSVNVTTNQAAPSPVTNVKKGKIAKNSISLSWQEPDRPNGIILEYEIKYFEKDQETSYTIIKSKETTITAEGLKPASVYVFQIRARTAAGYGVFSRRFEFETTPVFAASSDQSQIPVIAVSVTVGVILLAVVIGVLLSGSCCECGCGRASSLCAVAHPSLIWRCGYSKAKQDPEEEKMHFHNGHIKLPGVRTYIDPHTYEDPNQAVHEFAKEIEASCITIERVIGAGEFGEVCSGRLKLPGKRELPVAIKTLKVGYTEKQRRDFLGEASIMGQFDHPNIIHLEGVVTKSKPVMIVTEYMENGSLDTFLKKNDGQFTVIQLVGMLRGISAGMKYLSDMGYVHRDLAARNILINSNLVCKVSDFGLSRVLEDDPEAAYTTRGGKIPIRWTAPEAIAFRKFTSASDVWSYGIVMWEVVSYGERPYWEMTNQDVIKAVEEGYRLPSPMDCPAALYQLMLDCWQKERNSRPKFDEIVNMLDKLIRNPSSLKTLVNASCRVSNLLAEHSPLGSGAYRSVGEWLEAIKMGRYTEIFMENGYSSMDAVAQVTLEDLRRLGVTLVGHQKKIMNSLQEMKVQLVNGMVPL"}, "PKN2 (human)": {"molecular_target": "PKN2 (human) (UniProt Q16513)", "sequence (Q16513 whole entry, looked up)": "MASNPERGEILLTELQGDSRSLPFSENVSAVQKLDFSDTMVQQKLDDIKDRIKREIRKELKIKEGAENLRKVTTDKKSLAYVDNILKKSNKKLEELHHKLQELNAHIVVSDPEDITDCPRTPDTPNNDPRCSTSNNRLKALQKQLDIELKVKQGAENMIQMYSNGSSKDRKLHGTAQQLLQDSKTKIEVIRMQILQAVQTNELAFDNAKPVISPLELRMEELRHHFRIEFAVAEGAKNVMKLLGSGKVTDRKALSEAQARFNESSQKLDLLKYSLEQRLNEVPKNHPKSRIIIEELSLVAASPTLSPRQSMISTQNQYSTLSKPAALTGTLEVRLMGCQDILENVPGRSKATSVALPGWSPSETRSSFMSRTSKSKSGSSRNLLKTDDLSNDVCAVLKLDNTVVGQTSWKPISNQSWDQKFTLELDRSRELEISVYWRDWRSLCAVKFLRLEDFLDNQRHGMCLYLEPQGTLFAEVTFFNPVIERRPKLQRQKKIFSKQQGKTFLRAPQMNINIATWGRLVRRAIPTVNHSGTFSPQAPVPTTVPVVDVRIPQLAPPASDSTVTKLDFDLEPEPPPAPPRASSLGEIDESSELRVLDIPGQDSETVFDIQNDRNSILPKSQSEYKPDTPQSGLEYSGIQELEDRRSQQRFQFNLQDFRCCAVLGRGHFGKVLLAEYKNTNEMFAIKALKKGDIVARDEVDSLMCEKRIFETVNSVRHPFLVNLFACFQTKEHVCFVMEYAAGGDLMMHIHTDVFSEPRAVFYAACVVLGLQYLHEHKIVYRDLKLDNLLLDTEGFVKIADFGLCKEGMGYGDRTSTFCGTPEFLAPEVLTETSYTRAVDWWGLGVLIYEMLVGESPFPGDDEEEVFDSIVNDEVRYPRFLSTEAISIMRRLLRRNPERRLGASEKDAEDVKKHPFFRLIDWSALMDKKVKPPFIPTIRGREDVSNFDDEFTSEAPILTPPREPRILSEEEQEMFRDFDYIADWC"}, "CSF1R (human)": {"molecular_target": "CSF1R (human) (UniProt P07333)"}, "TEC (human)": {"molecular_target": "TEC (human) (UniProt P42680)"}, "PDGFRB (human)": {"molecular_target": "PDGFRB (human) (UniProt P09619)"}, "NEK11 (human)": {"molecular_target": "NEK11 (human) (UniProt Q8NG66)"}, "EPHA3 (human)": {"molecular_target": "EPHA3 (human) (UniProt P29320)"}, "IKBKB (human)": {"molecular_target": "IKBKB (human) (UniProt O14920)"}, "PRKCB1 (human)": {"molecular_target": "PRKCB1 (human) (UniProt P05771)"}, "EPHB1 (human)": {"molecular_target": "EPHB1 (human) (UniProt P54762)"}, "CAMK1D (human)": {"molecular_target": "CAMK1D (human) (UniProt Q8IU85)"}, "MATK (human)": {"molecular_target": "MATK (human) (UniProt P42679)", "sequence (P42679 whole entry, looked up)": "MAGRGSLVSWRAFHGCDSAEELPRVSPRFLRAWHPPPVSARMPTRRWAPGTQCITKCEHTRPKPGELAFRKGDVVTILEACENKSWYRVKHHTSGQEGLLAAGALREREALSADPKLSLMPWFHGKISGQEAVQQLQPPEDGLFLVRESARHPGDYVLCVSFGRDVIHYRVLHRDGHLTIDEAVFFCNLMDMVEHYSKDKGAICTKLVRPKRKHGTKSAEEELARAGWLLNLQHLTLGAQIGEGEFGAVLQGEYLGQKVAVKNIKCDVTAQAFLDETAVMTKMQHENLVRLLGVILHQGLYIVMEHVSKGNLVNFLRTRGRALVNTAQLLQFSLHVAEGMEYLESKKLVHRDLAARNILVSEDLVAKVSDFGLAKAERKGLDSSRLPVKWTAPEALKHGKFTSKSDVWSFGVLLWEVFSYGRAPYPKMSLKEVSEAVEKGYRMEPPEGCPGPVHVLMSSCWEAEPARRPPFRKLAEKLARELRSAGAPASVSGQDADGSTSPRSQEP"}, "RPS6KB1 (human)": {"molecular_target": "RPS6KB1 (human) (UniProt P23443)"}, "TNK2 (human)": {"molecular_target": "TNK2 (human) (UniProt Q07912)"}, "CAMKK1 (human)": {"molecular_target": "CAMKK1 (human) (UniProt Q8N5S9)"}, "GRK5 (human)": {"molecular_target": "GRK5 (human) (UniProt P34947)"}, "NEK3 (human)": {"molecular_target": "NEK3 (human) (UniProt P51956)"}, "AURKA (human)": {"molecular_target": "AURKA (human) (UniProt O14965)", "sequence (O14965 whole entry, looked up)": "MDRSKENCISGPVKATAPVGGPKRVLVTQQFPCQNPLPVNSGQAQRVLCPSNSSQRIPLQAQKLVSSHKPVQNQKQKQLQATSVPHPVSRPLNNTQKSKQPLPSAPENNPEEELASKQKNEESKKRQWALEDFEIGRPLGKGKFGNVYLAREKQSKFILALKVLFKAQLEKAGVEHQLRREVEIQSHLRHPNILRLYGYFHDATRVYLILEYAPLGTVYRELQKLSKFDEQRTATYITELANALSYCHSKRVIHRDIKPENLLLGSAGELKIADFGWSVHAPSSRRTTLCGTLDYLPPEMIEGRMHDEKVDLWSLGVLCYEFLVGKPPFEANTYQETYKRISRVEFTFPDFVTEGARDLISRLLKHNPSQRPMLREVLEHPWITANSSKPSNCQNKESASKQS"}, "MYLK (human)": {"molecular_target": "MYLK (human) (UniProt Q15746)"}, "DYRK4 (human)": {"molecular_target": "DYRK4 (human) (UniProt Q9NR20)"}, "OXSR1 (human)": {"molecular_target": "OXSR1 (human) (UniProt O95747)", "sequence (O95747 whole entry, looked up)": "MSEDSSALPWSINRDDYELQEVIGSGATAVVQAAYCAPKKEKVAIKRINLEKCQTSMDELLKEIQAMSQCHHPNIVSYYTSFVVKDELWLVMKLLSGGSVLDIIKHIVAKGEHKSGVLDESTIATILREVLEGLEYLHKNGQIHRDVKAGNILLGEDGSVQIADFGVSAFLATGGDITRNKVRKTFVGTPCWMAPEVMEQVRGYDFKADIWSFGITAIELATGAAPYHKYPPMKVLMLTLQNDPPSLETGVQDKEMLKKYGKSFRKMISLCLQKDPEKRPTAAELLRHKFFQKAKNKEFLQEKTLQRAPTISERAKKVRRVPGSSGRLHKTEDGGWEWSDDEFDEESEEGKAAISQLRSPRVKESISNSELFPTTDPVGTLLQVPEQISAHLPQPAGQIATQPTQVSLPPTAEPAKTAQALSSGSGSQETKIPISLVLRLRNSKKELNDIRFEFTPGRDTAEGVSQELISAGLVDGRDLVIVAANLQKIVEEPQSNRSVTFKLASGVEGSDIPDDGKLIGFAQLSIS"}, "TGFBR2 (human)": {"molecular_target": "TGFBR2 (human) (UniProt P37173)"}, "LYN (human)": {"molecular_target": "LYN (human) (UniProt P07948)", "sequence (P07948 whole entry, looked up)": "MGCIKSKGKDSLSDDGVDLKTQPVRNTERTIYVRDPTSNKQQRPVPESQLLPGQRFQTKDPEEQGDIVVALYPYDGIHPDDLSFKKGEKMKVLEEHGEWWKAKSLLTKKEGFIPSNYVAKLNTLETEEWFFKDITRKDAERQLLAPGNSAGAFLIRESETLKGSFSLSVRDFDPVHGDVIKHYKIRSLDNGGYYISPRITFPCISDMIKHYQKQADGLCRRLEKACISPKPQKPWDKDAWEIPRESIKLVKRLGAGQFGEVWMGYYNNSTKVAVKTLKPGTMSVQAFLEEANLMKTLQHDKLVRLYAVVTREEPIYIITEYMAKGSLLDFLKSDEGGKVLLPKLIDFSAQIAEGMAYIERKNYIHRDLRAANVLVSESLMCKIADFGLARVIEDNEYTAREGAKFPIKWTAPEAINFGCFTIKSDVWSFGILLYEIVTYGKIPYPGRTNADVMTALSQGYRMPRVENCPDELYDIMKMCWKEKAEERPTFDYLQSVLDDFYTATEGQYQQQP"}, "MAPK13 (human)": {"molecular_target": "MAPK13 (human) (UniProt O15264)", "sequence (O15264 whole entry, looked up)": "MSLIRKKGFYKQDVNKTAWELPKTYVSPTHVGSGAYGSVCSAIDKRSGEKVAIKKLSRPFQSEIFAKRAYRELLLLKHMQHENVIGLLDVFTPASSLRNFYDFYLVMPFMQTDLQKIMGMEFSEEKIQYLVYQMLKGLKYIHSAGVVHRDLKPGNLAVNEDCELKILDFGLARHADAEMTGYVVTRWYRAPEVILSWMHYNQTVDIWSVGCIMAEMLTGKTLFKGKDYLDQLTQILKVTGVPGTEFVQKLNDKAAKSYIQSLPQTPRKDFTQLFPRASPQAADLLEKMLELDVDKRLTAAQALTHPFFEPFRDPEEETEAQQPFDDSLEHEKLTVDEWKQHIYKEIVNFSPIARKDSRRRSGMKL"}, "CDK4 CCND3 (human)": {"molecular_target": "CDK4 CCND3 (human) (UniProt P30281+P11802)"}, "ADRBK1 (human)": {"molecular_target": "ADRBK1 (human) (UniProt P25098)"}, "FYN (human)": {"molecular_target": "FYN (human) (UniProt P06241)"}, "TBK1 (human)": {"molecular_target": "TBK1 (human) (UniProt Q9UHD2)"}, "FRK (human)": {"molecular_target": "FRK (human) (UniProt P42685)"}, "TTK (human)": {"molecular_target": "TTK (human) (UniProt P33981)"}, "NUAK2 (human)": {"molecular_target": "NUAK2 (human) (UniProt Q9H093)"}, "HCK (human)": {"molecular_target": "HCK (human) (UniProt P08631)", "sequence (P08631 whole entry, looked up)": "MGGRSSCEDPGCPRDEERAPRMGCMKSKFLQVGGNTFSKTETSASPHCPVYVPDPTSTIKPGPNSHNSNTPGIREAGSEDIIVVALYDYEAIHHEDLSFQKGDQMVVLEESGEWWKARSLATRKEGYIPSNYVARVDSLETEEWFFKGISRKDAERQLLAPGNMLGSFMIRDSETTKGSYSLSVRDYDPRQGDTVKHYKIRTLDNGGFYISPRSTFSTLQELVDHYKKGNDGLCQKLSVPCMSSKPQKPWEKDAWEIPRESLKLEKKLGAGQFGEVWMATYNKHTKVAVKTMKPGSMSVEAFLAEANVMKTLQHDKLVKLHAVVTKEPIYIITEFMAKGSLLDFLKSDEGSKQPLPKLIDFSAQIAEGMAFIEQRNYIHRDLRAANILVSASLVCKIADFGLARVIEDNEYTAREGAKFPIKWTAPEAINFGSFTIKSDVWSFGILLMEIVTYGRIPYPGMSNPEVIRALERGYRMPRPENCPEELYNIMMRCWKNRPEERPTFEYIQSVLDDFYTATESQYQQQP"}, "HIPK1 (human)": {"molecular_target": "HIPK1 (human) (UniProt Q86Z02)"}, "PIM3 (human)": {"molecular_target": "PIM3 (human) (UniProt Q86V86)"}, "MELK (human)": {"molecular_target": "MELK (human) (UniProt Q14680)"}, "PTK2 (human)": {"molecular_target": "PTK2 (human) (UniProt Q05397)"}, "MARK4 (human)": {"molecular_target": "MARK4 (human) (UniProt Q96L34)"}, "SLK (human)": {"molecular_target": "SLK (human) (UniProt Q9H2G2)"}, "STK16 (human)": {"molecular_target": "STK16 (human) (UniProt O75716)"}, "CAMK4 (human)": {"molecular_target": "CAMK4 (human) (UniProt Q16566)"}, "AKT2 (human)": {"molecular_target": "AKT2 (human) (UniProt P31751)"}},
  "note": "“And” between values parts separate entries of the source, which are not always exact repeats. Equal values may be shown once.",
  "data": [
    {"compound": "N#Cc1c(NC(=O)c2cccc3ccccc23)sc2c1CCCC2", "values": [
      {"measurement": "residual activity", "setting": "EPHA5 (human)", "result": 99.6, "unit": "%"},
      {"measurement": "residual activity", "setting": "PKN2 (human)", "result": 103, "unit": "%"},
      {"measurement": "residual activity", "setting": "CSF1R (human)", "result": 97.2, "unit": "%"},
      {"measurement": "residual activity", "setting": "TEC (human)", "result": 111, "unit": "%"},
      {"measurement": "residual activity", "setting": "PDGFRB (human)", "result": 98.9, "unit": "%"},
      {"measurement": "residual activity", "setting": "NEK11 (human)", "result": 105, "unit": "%"},
      {"measurement": "residual activity", "setting": "EPHA3 (human)", "result": 103, "unit": "%"},
      {"measurement": "residual activity", "setting": "IKBKB (human)", "result": 97, "unit": "%"},
      {"measurement": "residual activity", "setting": "PRKCB1 (human)", "result": 90.9, "unit": "%"},
      {"measurement": "residual activity", "setting": "EPHB1 (human)", "result": 95.9, "unit": "%"},
      {"measurement": "residual activity", "setting": "CAMK1D (human)", "result": 120, "unit": "%"},
      {"measurement": "residual activity", "setting": "MATK (human)", "result": 92.7, "unit": "%"},
      {"measurement": "residual activity", "setting": "RPS6KB1 (human)", "result": 105, "unit": "%"},
      {"measurement": "residual activity", "setting": "TNK2 (human)", "result": 95.4, "unit": "%"},
      {"measurement": "residual activity", "setting": "CAMKK1 (human)", "result": 109, "unit": "%"},
      {"measurement": "residual activity", "setting": "GRK5 (human)", "result": 98.2, "unit": "%"},
      {"measurement": "residual activity", "setting": "NEK3 (human)", "result": 93.2, "unit": "%"},
      {"measurement": "residual activity", "setting": "AURKA (human)", "result": 101, "unit": "%"},
      {"measurement": "residual activity", "setting": "MYLK (human)", "result": 98.7, "unit": "%"},
      {"measurement": "residual activity", "setting": "DYRK4 (human)", "result": 98.1, "unit": "%"},
      {"measurement": "residual activity", "setting": "OXSR1 (human)", "result": 103, "unit": "%"},
      {"measurement": "residual activity", "setting": "TGFBR2 (human)", "result": 104, "unit": "%"},
      {"measurement": "residual activity", "setting": "LYN (human)", "result": "104% and 87%"},
      {"measurement": "residual activity", "setting": "MAPK13 (human)", "result": 109, "unit": "%"},
      {"measurement": "residual activity", "setting": "CDK4 CCND3 (human)", "result": 97.1, "unit": "%"},
      {"measurement": "residual activity", "setting": "ADRBK1 (human)", "result": 105, "unit": "%"},
      {"measurement": "residual activity", "setting": "FYN (human)", "result": 102, "unit": "%"},
      {"measurement": "residual activity", "setting": "TBK1 (human)", "result": 94, "unit": "%"},
      {"measurement": "residual activity", "setting": "FRK (human)", "result": 104, "unit": "%"},
      {"measurement": "residual activity", "setting": "TTK (human)", "result": 85.5, "unit": "%"},
      {"measurement": "residual activity", "setting": "NUAK2 (human)", "result": 76.7, "unit": "%"},
      {"measurement": "residual activity", "setting": "HCK (human)", "result": 96.5, "unit": "%"},
      {"measurement": "residual activity", "setting": "HIPK1 (human)", "result": 107, "unit": "%"},
      {"measurement": "residual activity", "setting": "PIM3 (human)", "result": 95.3, "unit": "%"},
      {"measurement": "residual activity", "setting": "MELK (human)", "result": 83.3, "unit": "%"},
      {"measurement": "residual activity", "setting": "PTK2 (human)", "result": 101, "unit": "%"},
      {"measurement": "residual activity", "setting": "MARK4 (human)", "result": 101, "unit": "%"},
      {"measurement": "residual activity", "setting": "SLK (human)", "result": 99.2, "unit": "%"},
      {"measurement": "residual activity", "setting": "STK16 (human)", "result": 98.5, "unit": "%"},
      {"measurement": "residual activity", "setting": "CAMK4 (human)", "result": 108, "unit": "%"},
      {"measurement": "residual activity", "setting": "AKT2 (human)", "result": 105, "unit": "%"}
    ]}
  ]
}
